From paper PMC8800111 (The Journal of Biological Chemistry, 2021)

Assays:
Assay type in all cases: cell-based
[1] = molecular target: proteins of U3A human fibrosarcoma cells (4462 proteins detected) (Homo sapiens, UniProt O00567); conditions: protein NOP56; U3A cells
[2] = molecular target: proteins of U3A human fibrosarcoma cells (4462 proteins detected) (Homo sapiens, UniProt O15066); conditions: protein KIF3B; U3A cells
[3] = molecular target: proteins of U3A human fibrosarcoma cells (4462 proteins detected) (Homo sapiens, UniProt O43683); conditions: protein BUB1; U3A cells
[4] = molecular target: proteins of U3A human fibrosarcoma cells (4462 proteins detected) (Homo sapiens, UniProt O75147); conditions: protein OBSL1, U3A cells
[5] = molecular target: proteins of U3A human fibrosarcoma cells (4462 proteins detected) (Homo sapiens, UniProt O75170); conditions: protein PPP6R2; soluble abundance after heat, U3A cells
[6] = molecular target: proteins of U3A human fibrosarcoma cells (4462 proteins detected) (Homo sapiens, UniProt O75347); conditions: protein TBCA, U3A cells
[7] = molecular target: proteins of U3A human fibrosarcoma cells (4462 proteins detected) (Homo sapiens, UniProt O94992); conditions: protein HEXIM1, U3A cells
[8] = molecular target: proteins of U3A human fibrosarcoma cells (4462 proteins detected) (Homo sapiens, UniProt O95297); conditions: protein MPZL1; U3A, 10 μM, 2 h
[9] = molecular target: proteins of U3A human fibrosarcoma cells (4462 proteins detected) (Homo sapiens, UniProt O95372); conditions: protein LYPLA2; soluble abundance after heat, U3A cells
[10] = molecular target: proteins of U3A human fibrosarcoma cells (4462 proteins detected) (Homo sapiens, UniProt P09874); conditions: protein PARP1; U3A cells
[11] = molecular target: proteins of U3A human fibrosarcoma cells (4462 proteins detected) (Homo sapiens, UniProt P13489); conditions: protein RNH1; U3A cells
[12] = molecular target: proteins of U3A human fibrosarcoma cells (4462 proteins detected) (Homo sapiens, UniProt P18206); conditions: protein VCL; soluble abundance after heat, U3A cells
[13] = molecular target: proteins of U3A human fibrosarcoma cells (4462 proteins detected) (Homo sapiens, UniProt P30154); conditions: protein PPP2R1B; soluble abundance after heat, U3A cells
[14] = molecular target: proteins of U3A human fibrosarcoma cells (4462 proteins detected) (Homo sapiens, UniProt P40123); conditions: protein CAP2; U3A cells
[15] = molecular target: proteins of U3A human fibrosarcoma cells (4462 proteins detected) (Homo sapiens, UniProt P52747); conditions: protein ZNF143; U3A, 10 μM, 2 h
[16] = molecular target: proteins of U3A human fibrosarcoma cells (4462 proteins detected) (Homo sapiens, UniProt P57105); conditions: protein SYNJ2BP-COX16; SYNJ2BP, U3A cells
[17] = molecular target: proteins of U3A human fibrosarcoma cells (4462 proteins detected) (Homo sapiens, UniProt P62937); conditions: protein PPIA
[18] = molecular target: proteins of U3A human fibrosarcoma cells (4462 proteins detected) (Homo sapiens, UniProt Q5T2R2); conditions: protein PDSS1; U3A cells
[19] = molecular target: proteins of U3A human fibrosarcoma cells (4462 proteins detected) (Homo sapiens, UniProt Q8NCN4); conditions: protein RNF169, U3A cells
[20] = molecular target: proteins of U3A human fibrosarcoma cells (4462 proteins detected) (Homo sapiens, UniProt Q8TA86); conditions: protein RP9, U3A cells
[21] = molecular target: proteins of U3A human fibrosarcoma cells (4462 proteins detected) (Homo sapiens, UniProt Q8TD30); conditions: protein GPT2; U3A cells
[22] = molecular target: proteins of U3A human fibrosarcoma cells (4462 proteins detected) (Homo sapiens, UniProt Q96BP2); conditions: protein CHCHD1; soluble abundance after heat, U3A cells
[23] = molecular target: proteins of U3A human fibrosarcoma cells (4462 proteins detected) (Homo sapiens, UniProt Q9BW91); conditions: protein NUDT9, U3A cells
[24] = molecular target: proteins of U3A human fibrosarcoma cells (4462 proteins detected) (Homo sapiens, UniProt Q9H1B7); conditions: protein IRF2BPL; soluble abundance after heat, U3A cells
[25] = molecular target: proteins of U3A human fibrosarcoma cells (4462 proteins detected) (Homo sapiens, UniProt Q9H3P7); conditions: protein ACBD3; U3A, 10 μM, 2 h
[26] = molecular target: proteins of U3A human fibrosarcoma cells (4462 proteins detected) (Homo sapiens, UniProt Q9H4A3); conditions: protein WNK1, U3A cells
[27] = molecular target: proteins of U3A human fibrosarcoma cells (4462 proteins detected) (Homo sapiens, UniProt Q9H871); conditions: protein RMND5A; U3A cells
[28] = molecular target: proteins of U3A human fibrosarcoma cells (4462 proteins detected) (Homo sapiens, UniProt Q9NSV4); conditions: protein DIAPH3, U3A cells
[29] = molecular target: proteins of U3A human fibrosarcoma cells (4462 proteins detected) (Homo sapiens, UniProt Q9UH65); conditions: protein SWAP70; soluble abundance after heat, U3A cells

Sequence of proteins of U3A human fibrosarcoma cells (4462 proteins detected) (Homo sapiens, UniProt P62937) (P62937 whole entry): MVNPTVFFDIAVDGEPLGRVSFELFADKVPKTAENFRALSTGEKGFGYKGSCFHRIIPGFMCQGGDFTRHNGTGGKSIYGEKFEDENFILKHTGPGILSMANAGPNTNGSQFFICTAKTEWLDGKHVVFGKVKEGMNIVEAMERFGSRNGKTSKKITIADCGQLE
Sequence of proteins of U3A human fibrosarcoma cells (4462 proteins detected) (Homo sapiens, UniProt O15066) (O15066 whole entry): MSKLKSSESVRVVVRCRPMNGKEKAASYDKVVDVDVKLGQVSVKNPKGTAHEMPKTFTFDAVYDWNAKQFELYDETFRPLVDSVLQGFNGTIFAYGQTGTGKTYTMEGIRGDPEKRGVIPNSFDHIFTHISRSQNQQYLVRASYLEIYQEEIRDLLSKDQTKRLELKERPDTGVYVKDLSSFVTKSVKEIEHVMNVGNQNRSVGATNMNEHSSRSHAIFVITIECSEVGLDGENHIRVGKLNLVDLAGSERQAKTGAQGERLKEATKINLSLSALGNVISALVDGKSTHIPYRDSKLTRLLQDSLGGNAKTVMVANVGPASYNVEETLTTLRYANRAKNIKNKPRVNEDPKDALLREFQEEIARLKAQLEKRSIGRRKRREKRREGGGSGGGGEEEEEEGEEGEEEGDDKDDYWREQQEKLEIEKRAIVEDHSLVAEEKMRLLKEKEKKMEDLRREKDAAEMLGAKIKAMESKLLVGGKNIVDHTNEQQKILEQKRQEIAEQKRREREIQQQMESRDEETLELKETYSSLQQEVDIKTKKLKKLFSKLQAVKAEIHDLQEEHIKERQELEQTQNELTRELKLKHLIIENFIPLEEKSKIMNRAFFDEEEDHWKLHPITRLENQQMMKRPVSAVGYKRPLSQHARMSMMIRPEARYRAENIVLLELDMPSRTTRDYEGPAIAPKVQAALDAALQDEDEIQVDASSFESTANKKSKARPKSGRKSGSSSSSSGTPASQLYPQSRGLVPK
Sequence of proteins of U3A human fibrosarcoma cells (4462 proteins detected) (Homo sapiens, UniProt Q8TA86) (Q8TA86 whole entry): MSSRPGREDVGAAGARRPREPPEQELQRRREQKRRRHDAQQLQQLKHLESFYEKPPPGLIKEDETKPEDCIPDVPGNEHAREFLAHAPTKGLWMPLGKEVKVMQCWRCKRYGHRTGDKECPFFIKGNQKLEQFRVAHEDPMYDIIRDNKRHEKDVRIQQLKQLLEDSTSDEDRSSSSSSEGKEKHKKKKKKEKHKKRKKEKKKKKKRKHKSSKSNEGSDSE
Sequence of proteins of U3A human fibrosarcoma cells (4462 proteins detected) (Homo sapiens, UniProt Q8TD30) (Q8TD30 whole entry): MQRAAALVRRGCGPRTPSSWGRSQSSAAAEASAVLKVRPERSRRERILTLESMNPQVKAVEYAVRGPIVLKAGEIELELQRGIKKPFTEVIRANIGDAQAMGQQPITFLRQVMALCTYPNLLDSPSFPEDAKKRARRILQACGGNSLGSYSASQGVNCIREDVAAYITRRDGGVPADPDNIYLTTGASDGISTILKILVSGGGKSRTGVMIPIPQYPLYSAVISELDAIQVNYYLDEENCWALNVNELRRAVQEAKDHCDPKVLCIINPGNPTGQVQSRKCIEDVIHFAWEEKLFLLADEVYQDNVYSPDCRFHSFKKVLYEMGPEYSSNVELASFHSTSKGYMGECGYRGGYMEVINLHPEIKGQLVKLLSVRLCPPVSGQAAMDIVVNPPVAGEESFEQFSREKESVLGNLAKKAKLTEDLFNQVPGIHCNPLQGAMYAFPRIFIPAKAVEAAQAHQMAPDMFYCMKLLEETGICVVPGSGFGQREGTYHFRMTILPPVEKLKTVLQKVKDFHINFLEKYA
Sequence of proteins of U3A human fibrosarcoma cells (4462 proteins detected) (Homo sapiens, UniProt O95372) (O95372 whole entry): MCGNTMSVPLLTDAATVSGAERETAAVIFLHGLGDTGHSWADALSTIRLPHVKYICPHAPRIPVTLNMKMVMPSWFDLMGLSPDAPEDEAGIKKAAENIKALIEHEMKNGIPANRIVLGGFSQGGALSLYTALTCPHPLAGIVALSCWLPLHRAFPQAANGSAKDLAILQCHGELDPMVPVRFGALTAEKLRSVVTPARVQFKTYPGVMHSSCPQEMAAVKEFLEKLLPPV
Sequence of proteins of U3A human fibrosarcoma cells (4462 proteins detected) (Homo sapiens, UniProt O94992) (O94992 whole entry): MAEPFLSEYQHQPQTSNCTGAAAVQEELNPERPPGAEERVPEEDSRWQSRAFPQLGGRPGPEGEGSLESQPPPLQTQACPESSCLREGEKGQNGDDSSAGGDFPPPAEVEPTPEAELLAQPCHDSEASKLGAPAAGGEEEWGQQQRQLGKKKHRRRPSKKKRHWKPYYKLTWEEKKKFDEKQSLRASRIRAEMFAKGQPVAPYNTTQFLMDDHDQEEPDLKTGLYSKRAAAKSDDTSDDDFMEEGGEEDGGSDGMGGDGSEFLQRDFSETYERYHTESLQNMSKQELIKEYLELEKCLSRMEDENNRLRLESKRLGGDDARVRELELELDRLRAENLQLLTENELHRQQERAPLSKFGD
Sequence of proteins of U3A human fibrosarcoma cells (4462 proteins detected) (Homo sapiens, UniProt P52747) (P52747 whole entry): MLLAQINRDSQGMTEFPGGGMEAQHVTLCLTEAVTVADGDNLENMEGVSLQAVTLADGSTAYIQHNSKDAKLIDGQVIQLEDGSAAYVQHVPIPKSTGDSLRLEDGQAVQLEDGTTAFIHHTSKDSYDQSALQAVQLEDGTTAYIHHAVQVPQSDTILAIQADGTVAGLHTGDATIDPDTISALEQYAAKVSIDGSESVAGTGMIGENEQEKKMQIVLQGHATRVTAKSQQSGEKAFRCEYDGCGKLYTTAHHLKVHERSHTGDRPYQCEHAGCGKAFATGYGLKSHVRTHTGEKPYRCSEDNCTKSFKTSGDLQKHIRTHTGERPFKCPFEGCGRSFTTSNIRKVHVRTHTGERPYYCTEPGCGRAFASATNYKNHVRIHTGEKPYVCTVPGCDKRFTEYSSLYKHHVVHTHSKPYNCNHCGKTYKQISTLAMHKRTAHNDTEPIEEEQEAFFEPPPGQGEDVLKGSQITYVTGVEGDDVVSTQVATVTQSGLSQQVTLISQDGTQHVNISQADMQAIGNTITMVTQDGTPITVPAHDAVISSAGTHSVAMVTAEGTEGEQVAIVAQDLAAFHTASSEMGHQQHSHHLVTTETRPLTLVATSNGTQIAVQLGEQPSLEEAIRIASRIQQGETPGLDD
Sequence of proteins of U3A human fibrosarcoma cells (4462 proteins detected) (Homo sapiens, UniProt O00567) (O00567 whole entry): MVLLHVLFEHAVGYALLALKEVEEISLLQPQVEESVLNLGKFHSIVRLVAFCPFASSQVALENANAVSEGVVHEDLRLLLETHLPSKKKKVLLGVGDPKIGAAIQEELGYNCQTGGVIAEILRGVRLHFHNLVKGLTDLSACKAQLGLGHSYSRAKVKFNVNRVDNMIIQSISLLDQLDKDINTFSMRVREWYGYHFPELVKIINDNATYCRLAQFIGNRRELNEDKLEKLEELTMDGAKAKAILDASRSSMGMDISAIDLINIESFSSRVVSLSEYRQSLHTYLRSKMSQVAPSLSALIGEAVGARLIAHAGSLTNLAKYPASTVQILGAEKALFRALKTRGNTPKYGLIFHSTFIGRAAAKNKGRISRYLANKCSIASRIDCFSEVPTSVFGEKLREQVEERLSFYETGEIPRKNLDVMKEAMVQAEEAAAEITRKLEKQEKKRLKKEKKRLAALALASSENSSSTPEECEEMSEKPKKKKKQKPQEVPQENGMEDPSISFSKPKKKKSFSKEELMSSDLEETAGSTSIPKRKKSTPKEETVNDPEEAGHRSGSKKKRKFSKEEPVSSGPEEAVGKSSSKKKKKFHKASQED
Sequence of proteins of U3A human fibrosarcoma cells (4462 proteins detected) (Homo sapiens, UniProt P13489) (P13489 whole entry): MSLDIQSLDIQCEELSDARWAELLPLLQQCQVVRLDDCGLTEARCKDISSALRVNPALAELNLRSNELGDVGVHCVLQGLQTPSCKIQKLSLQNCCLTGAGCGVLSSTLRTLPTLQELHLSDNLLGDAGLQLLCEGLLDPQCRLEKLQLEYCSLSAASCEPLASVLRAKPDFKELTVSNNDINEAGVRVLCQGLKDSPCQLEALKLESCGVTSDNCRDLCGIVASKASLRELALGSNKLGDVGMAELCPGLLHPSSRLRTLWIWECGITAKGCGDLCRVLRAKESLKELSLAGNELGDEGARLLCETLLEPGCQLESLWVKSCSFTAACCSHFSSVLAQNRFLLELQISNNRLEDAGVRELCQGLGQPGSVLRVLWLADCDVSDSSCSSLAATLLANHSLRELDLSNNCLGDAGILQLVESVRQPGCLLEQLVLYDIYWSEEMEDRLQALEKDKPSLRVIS
Sequence of proteins of U3A human fibrosarcoma cells (4462 proteins detected) (Homo sapiens, UniProt Q9H1B7) (Q9H1B7 whole entry): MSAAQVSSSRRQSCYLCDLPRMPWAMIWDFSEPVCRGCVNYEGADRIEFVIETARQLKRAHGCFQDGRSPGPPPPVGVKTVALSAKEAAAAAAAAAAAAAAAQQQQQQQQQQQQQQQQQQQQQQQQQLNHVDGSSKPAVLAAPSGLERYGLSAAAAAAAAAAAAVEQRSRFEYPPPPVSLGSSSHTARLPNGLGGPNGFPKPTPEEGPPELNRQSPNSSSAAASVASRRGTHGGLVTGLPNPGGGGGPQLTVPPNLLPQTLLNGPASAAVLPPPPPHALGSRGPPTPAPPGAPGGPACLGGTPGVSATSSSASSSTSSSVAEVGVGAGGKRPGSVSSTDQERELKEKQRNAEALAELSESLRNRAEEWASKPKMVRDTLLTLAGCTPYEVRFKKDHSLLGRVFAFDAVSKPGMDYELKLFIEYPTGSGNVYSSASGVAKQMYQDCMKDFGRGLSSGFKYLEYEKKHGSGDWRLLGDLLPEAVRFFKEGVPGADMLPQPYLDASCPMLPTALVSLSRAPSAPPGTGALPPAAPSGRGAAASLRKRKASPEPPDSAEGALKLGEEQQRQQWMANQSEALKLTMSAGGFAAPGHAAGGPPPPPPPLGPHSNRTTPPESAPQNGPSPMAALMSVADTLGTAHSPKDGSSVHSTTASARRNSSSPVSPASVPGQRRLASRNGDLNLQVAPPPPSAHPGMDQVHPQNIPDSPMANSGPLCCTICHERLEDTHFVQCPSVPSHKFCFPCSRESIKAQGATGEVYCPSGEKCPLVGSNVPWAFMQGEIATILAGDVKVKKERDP
Sequence of proteins of U3A human fibrosarcoma cells (4462 proteins detected) (Homo sapiens, UniProt O75347) (O75347 whole entry): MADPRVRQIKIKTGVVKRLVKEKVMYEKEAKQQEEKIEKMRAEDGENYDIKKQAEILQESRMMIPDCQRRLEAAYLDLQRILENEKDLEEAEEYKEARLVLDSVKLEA

CCc1nc(N)nc(N)c1-c1ccc(Cl)cc1 [pyrimethamine]
Log2 (PYR/DMSO) [1]: 0.21
Log2 (PYR/DMSO) [2]: 0.16
Log2 (PYR/DMSO) [3]: 0.16
Log2 (PYR/DMSO) [4]: -0.04
Log2 (PYR/DMSO) [5]: 0.13
Log2 (PYR/DMSO) [6]: -0.04
Log2 (PYR/DMSO) [7]: -0.04
Log2 (PYR/DMSO), MPZL1 [8]: 0.25
Log2 (PYR/DMSO) [9]: 0.15
Log2 (PYR/DMSO) [10]: 0.19
Log2 (PYR/DMSO) [11]: 0.18
Log2 (PYR/DMSO) [12]: 0.15
Log2 (PYR/DMSO) [13]: 0.15
Log2 (PYR/DMSO) [14]: 0.21
Log2 (PYR/DMSO), ZNF143 [15]: -0.16
Log2 (PYR/DMSO) [16]: -0.03
Log2 (PYR/DMSO) ([17]; U3A cells): -0.03
Log2 (PYR/DMSO), PPIA ([17]; U3A, 10 μM, 2 h): -0.14
Log2 (PYR/DMSO) [18]: 0.20
Log2 (PYR/DMSO) [19]: -0.03
Log2 (PYR/DMSO) [20]: -0.05
Log2 (PYR/DMSO) [21]: 0.16
Log2 (PYR/DMSO) [22]: 0.15
Log2 (PYR/DMSO) [23]: -0.04
Log2 (PYR/DMSO) [24]: 0.14
Log2 (PYR/DMSO), ACBD3 [25]: 0.24
Log2 (PYR/DMSO) [26]: -0.04
Log2 (PYR/DMSO) [27]: 0.21
Log2 (PYR/DMSO) [28]: -0.04
Log2 (PYR/DMSO) [29]: 0.14
